Measured values reported in patent US6737383B1, “Herbicidal oxadiazolidines” (priority 1999, dated 2004).

What was measured:
bedstraw = experiment: Test B pre/postemergence bedstraw; format: in vivo, Galium aparine
In short: (§1)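 Herbicidal effect was estimated by eye on a ten-point control scale after plants spent twelve to sixteen days in a greenhouse following soil or foliar treatment. Foliar sprays targeted plants at one to four leaves; all doses were formulated in a non-phytotoxic solvent with surfactant.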

blackgrass = experiment: Test B pre/postemergence blackgrass; format: in vivo, Alopecurus myosuroides
In short: as §1

surinam grass = experiment: Test B pre/postemergence surinam grass; format: in vivo, Brachiaria decumbens
In short: as §1

cocklebur = experiment: Test B pre/postemergence cocklebur; format: in vivo, Xanthium strumarium
In short: as §1

corn = experiment: Test B pre/postemergence corn; format: in vivo, Zea mays
In short: as §1

crabgrass = experiment: Test B pre/postemergence crabgrass; format: in vivo, Digitaria sanguinalis
In short: as §1

giant foxtail = experiment: Test B pre/postemergence giant foxtail; format: in vivo, Setaria faberii
In short: as §1

morningglory = experiment: Test B pre/postemergence morningglory; format: in vivo, Ipomoea hederacea
In short: as §1

pigweed = experiment: Test B pre/postemergence pigweed; format: in vivo, Amaranthus retroflexus
In short: as §1

rape = experiment: Test B pre/postemergence rape; format: in vivo, Brassica napus
In short: as §1

soybean = experiment: Test B pre/postemergence soybean; format: in vivo, Glycine max
In short: as §1

sugar beet = experiment: Test B pre/postemergence sugar beet; format: in vivo, Beta vulgaris; conditions: for Plant response rating, Sugarbeets: Rate 250 g/ha
In short: as §1

velvetleaf = experiment: Test B pre/postemergence velvetleaf; format: in vivo, Abutilon theophrasti; conditions: for Plant response rating, Velvetleaf: Rate 250 g/ha
In short: as §1

wheat = experiment: Test B pre/postemergence wheat; format: in vivo, Triticum aestivum; conditions: for Plant response rating, Wheat: Rate 250 g/ha
In short: as §1

wild oat = experiment: Test B pre/postemergence wild oat; format: in vivo, Avena fatua; conditions: for Plant response rating, Wild oats: Rate 250 g/ha
In short: as §1

purple nutsedge = experiment: Test B pre/postemergence purple nutsedge; format: in vivo, Cyperus rotundus
In short: as §1

[1] = Postemergence, Rate 62 g/ha, scale 0 to 10, 0 is no effect, 10 is complete control
[2] = Postemergence, Rate 250 g/ha, scale 0 to 10, 0 no effect, 10 complete control
[3] = Preemergence, Rate 62 g/ha, scale 0 to 10 (0 no effect, 10 complete control)
[4] = Preemergence, Rate 250 g/ha, scale of 0 to 10 where 0 is no effect and 10 is complete control
[5] = Rate 31 g/ha, Postemergence, scale 0 to 10
[6] = Rate 125 g/ha, Postemergence, scale 0 to 10, 0 no effect, 10 complete control
[7] = Postemergence, Rate 125 g/ha, scale of 0 to 10 where 0 is no effect and 10 is complete control
[8] = Preemergence, Rate 31 g/ha, visual rating, scale 0 to 10 (0 no effect, 10 complete control)
[9] = Preemergence, Rate 125 g/ha, scale 0 to 10 (0 no effect, 10 complete control)
[10] = Rate 62 g/ha, Postemergence, scale of 0 to 10 where 0 is no effect and 10 is complete control
[11] = Rate 250 g/ha, Postemergence, scale 0 to 10, 0 is no effect, 10 is complete control
[12] = Preemergence, Rate 125 g/ha, 0 is no effect, 10 is complete control
[13] = Preemergence, scale of 0 to 10 where 0 is no effect and 10 is complete control
[14] = Postemergence, scale 0 to 10, 0 is no effect, 10 is complete control

Cc1onc(-c2ccccc2)c1-n1c(=O)on(C(=O)N(c2ccc(F)cc2)C(C)C)c1=O [Compound 100]
0: Bedstraw plant response rating (bedstraw; [1]) | Bedstraw plant response rating (bedstraw; [2]) | Bedstraw plant response rating (bedstraw; [3]) | Plant response rating, Bedstraw (bedstraw; [4]) | Bedstraw plant response rating (bedstraw; [5]) | Bedstraw plant response rating (bedstraw; [6]) | Blackgrass plant response rating (blackgrass; [7]) | Blackgrass plant response rating (blackgrass; [2]) | Blackgrass plant response rating (blackgrass; [8]) | Blackgrass plant response rating (blackgrass; [3]) | Plant response rating, Blackgrass (blackgrass; [9]) | Plant response rating, Blackgrass (blackgrass; [4]) | Blackgrass plant response rating (blackgrass; [5]) | Blackgrass plant response rating (blackgrass; [10]) | B. signalgrass plant response rating (surinam grass; [1]) | B. signalgrass plant response rating (surinam grass; [2]) | B. signalgrass plant response rating (surinam grass; [8]) | B. signalgrass plant response rating (surinam grass; [3]) | Plant response rating, B. signalgrass (surinam grass; [9]) | Plant response rating, B. signalgrass (surinam grass; [4]) | B. signalgrass plant response rating (surinam grass; [5]) | B. signalgrass plant response rating (surinam grass; [6]) | Cocklebur plant response rating (cocklebur; [7]) | Cocklebur plant response rating (cocklebur; [2]) | Cocklebur plant response rating (cocklebur; [8]) | Cocklebur plant response rating (cocklebur; [3]) | Plant response rating, Cocklebur (cocklebur; [9]) | Plant response rating, Cocklebur (cocklebur; [4]) | Cocklebur plant response rating (cocklebur; [5]) | Cocklebur plant response rating (cocklebur; [10]) | Corn plant response rating (corn; [7]) | Corn plant response rating (corn; [2]) | Corn plant response rating (corn; [8]) | Corn plant response rating (corn; [3]) | Plant response rating, Corn (corn; [9]) | Plant response rating, Corn (corn; [4]) | Corn plant response rating (corn; [5]) | Corn plant response rating (corn; [10]) | Crabgrass plant response rating (crabgrass; [7]) | Crabgrass plant response rating (crabgrass; [2]) | Crabgrass plant response rating (crabgrass; [8]) | Crabgrass plant response rating (crabgrass; [3]) | Plant response rating, Crabgrass (crabgrass; [9]) | Plant response rating, Crabgrass (crabgrass; [4]) | Crabgrass plant response rating (crabgrass; [5]) | Crabgrass plant response rating (crabgrass; [10]) | Giant foxtail plant response rating (giant foxtail; [7]) | Giant foxtail plant response rating (giant foxtail; [2]) | Giant foxtail plant response rating (giant foxtail; [8]) | Giant foxtail plant response rating (giant foxtail; [3]) | Plant response rating, Giant foxtail (giant foxtail; [9]) | Plant response rating, Giant foxtail (giant foxtail; [4]) | Giant foxtail plant response rating (giant foxtail; [5]) | Giant foxtail plant response rating (giant foxtail; [10]) | Morningglory plant response rating (morningglory; [7]) | Morningglory plant response rating (morningglory; [2]) | Morningglory plant response rating (morningglory; [8]) | Morningglory plant response rating (morningglory; [3]) | Plant response rating, Morningglory (morningglory; [9]) | Plant response rating, Morningglory (morningglory; [4]) | Morningglory plant response rating (morningglory; [5]) | Morningglory plant response rating (morningglory; [10]) | Redroot pigweed plant response rating (pigweed; [7]) | Redroot pigweed plant response rating (pigweed; [8]) | Redroot pigweed plant response rating (pigweed; [3]) | Plant response rating, Redroot pigweed (pigweed; [9]) | Plant response rating, Redroot pigweed (pigweed; [4]) | Redroot pigweed plant response rating (pigweed; [5]) | Redroot pigweed plant response rating (pigweed; [10]) | Plant response rating, Redroot pigweed (pigweed; [11]) | Rape plant response rating (rape; [7]) | Rape plant response rating (rape; [2]) | Rape plant response rating (rape; [8]) | Rape plant response rating (rape; [3]) | Plant response rating, Rape (rape; [9]) | Plant response rating, Rape (rape; [4]) | Rape plant response rating (rape; [5]) | Rape plant response rating (rape; [10]) | Soybean plant response rating (soybean; [7]) | Soybean plant response rating (soybean; [8]) | Soybean plant response rating (soybean; [3]) | Plant response rating, Soybean (soybean; [9]) | Plant response rating, Soybean (soybean; [4]) | Soybean plant response rating (soybean; [10]) | Plant response rating, Soybean (soybean; [11]) | Sugarbeets plant response rating (sugar beet; [7]) | Sugarbeets plant response rating (sugar beet; [8]) | Sugarbeets plant response rating (sugar beet; [3]) | Sugarbeets plant response rating (0 to 10 scale) (sugar beet; [12]) | Plant response rating, Sugarbeets (sugar beet; [13]) | Sugarbeets plant response rating (sugar beet; [10]) | Plant response rating, Sugarbeets (sugar beet; [14]) | Velvetleaf plant response rating (velvetleaf; [7]) | Velvetleaf plant response rating (velvetleaf; [8]) | Velvetleaf plant response rating (velvetleaf; [3]) | Velvetleaf plant response rating (0 to 10 scale) (velvetleaf; [12]) | Plant response rating, Velvetleaf (velvetleaf; [13]) | Velvetleaf plant response rating (velvetleaf; [10]) | Plant response rating, Velvetleaf (velvetleaf; [14]) | Wheat plant response rating (wheat; [7]) | Wheat plant response rating (wheat; [8]) | Wheat plant response rating (wheat; [3]) | Wheat plant response rating (0 to 10 scale) (wheat; [12]) | Plant response rating, Wheat (wheat; [13]) | Wheat plant response rating (wheat; [10]) | Plant response rating, Wheat (wheat; [14]) | Wild oats plant response rating (wild oat; [7]) | Wild oats plant response rating (wild oat; [8]) | Wild oats plant response rating (wild oat; [3]) | Wild oats plant response rating (0 to 10 scale) (wild oat; [12]) | Plant response rating, Wild oats (wild oat; [13]) | Wild oats plant response rating (wild oat; [10]) | Plant response rating, Wild oats (wild oat; [14]) | Nutsedge plant response rating (purple nutsedge; [7]) | Nutsedge plant response rating (purple nutsedge; [2]) | Nutsedge plant response rating (purple nutsedge; [8]) | Nutsedge plant response rating (purple nutsedge; [3]) | Plant response rating, Nutsedge (purple nutsedge; [9]) | Plant response rating, Nutsedge (purple nutsedge; [4]) | Nutsedge plant response rating (purple nutsedge; [5]) | Nutsedge plant response rating (purple nutsedge; [10])
